Laboratory results from US9393244B2, “Increasing parkin activity by administering a deubiquitinating enzyme inhibitor” (Georgetown University, priority 2013, dated 2016).
Peptide text beside a SMILES is read from it. * marks the point of attachment. Cbz = O=C(OCc1ccccc1)*

Legend:
[1] = biological target: T1, 20S proteasome (Homo sapiens, UniProt P28074); experiment: Chymotrypsin-like proteasome activity assay in M17 cells; format: cell-based; settings: for effects of USP13 overexpression on proteasome activity: shRNA with USP13 overexpression
T1 construct: endogenous in cells; host or cells: human M17 neuroblastoma cells
Experimental: (§1) To further determine whether USP13 targets parkin, M17 cells were transfected with 3 μg lentiviral plasmids containing parkin, USP13 or different shRNA USP13 clones (FIG. 27A) for 48 hr. The expression level of the shRNAs was determined by routine stereology of the GFP and VS-tagged lentivirus to ensure equal expression of lentiviral plasmids. USP13 gene expression level is verified by PCR. Co-expression of USP13 and parkin led to an increase (134%) in parkin level compared to parkin alone (FIG. 27A, 1st blot, N=4), but shRNA expression reduced USP13 and parkin levels relative to actin (FIG. 27A). […] To ascertain that manipulation of USP13 expression affects protein clearance, the activity of the 20S proteasome activity was measured using chymotrypsin-like assays. Proteasome activity was inhibited after 2 hr treatment with 20 μM proteasome inhibitor MG132 compared to control (LacZ) or parkin alone (FIG. 27B, N=4).

[2] = system: USP10; experiment: Western blot of STEN (soluble) extracts of M17 cells, endogenous USP10 level; format: cell-based, human; settings: M17 cells transfected with 3 μg lentiviral plasmids for 48 hr; FIG. 27A 2nd blot
Experimental: as §1

[3] = system: USP13; experiment: Western blot of STEN (soluble) extracts of M17 cells, USP13 level; format: cell-based, human; settings: M17 cells transfected with 3 μg lentiviral plasmids for 48 hr; FIG. 27A 1st blot
Experimental: as §1

[4] = system: parkin; experiment: Western blot of STEN (soluble) extracts of M17 cells, parkin level; format: cell-based, human; settings: M17 cells transfected with 3 μg lentiviral plasmids for 48 hr; FIG. 27A 3rd blot
Experimental: as §1

Compound	effect on USP10 level [2]	effects of USP13 overexpression on proteasome activity [1]	other results
CC(C)C[C@@H](C=O)NC(=O)[C@H](CC(C)C)NC(=O)[C@H](CC(C)C)NC(=O)OCc1ccccc1 [MG132, reference compound] (Cbz-Leu-Leu-Leu-aldehyde)			proteasome activity ([1]; 2 hr treatment with 20 μM, compared to control (LacZ) or parkin alone, N=4): inhibited; effect on shRNA-mediated increase/reversal of proteasome activity ([1]; MG132 added to shRNA (F03, F02) conditions): blocked these effects; proteasome activity ([1]; cells co-expressing USP13 with parkin): further inhibited
E07: USP13 shRNA clone, 5′ TTTCCAGTGAAGTACACAG 3′ (SEQ ID NO: 1)	without any effects		
E08: USP13 shRNA clone, 5′ TATTCGTTGCTCGTAGTGC 3′(SEQ ID NO: 5)	did not produce any significant effects		effect on USP13 level [3]: did not produce any significant effects; effect on parkin level [4]: did not produce any significant effects
F02: USP13 shRNA clone, 5′ TCTTGTAGACCCTGTCGCC 3′ (SEQ ID NO: 4)	without any effects	completely reversed	
F03: USP13 shRNA clone, 5′ TTTCTCGCAGGTCGCATCT 3′ (SEQ ID NO: 3)	without any effects	completely reversed	increase of proteasome activity ([1]; blocking USP13 with shRNA, compared to control): 14%
F04: USP13 shRNA clone, 5′AACTTAGTCATCTGTGTGT 3′ (SEQ ID NO: 2)	without any effects		
